In ChEMBL document CHEMBL1641467, “Quinazolinones as γ-secretase modulators” (Bioorg Med Chem Lett, 2011):
Converted amounts (≈) assume the structure as drawn.

Key:
Gamma-secretase [1] = assay: Inhibition of gamma-secretase in human SH-SY5Y cells overexpressing APP assessed as amyloid beta-42 production by electrochemiluminescent assay
Gamma-secretase [2] = assay: Inhibition of gamma-secretase in human SH-SY5Y cells overexpressing APP assessed as amyloid beta-40 production by electrochemiluminescent assay
[3] = molecular target: Voltage-gated inwardly rectifying potassium channel KCNH2 (Homo sapiens, UniProt Q12809)
Voltage-gated inwardly rectifying potassium channel KCNH2, sequence (Q12809 whole entry): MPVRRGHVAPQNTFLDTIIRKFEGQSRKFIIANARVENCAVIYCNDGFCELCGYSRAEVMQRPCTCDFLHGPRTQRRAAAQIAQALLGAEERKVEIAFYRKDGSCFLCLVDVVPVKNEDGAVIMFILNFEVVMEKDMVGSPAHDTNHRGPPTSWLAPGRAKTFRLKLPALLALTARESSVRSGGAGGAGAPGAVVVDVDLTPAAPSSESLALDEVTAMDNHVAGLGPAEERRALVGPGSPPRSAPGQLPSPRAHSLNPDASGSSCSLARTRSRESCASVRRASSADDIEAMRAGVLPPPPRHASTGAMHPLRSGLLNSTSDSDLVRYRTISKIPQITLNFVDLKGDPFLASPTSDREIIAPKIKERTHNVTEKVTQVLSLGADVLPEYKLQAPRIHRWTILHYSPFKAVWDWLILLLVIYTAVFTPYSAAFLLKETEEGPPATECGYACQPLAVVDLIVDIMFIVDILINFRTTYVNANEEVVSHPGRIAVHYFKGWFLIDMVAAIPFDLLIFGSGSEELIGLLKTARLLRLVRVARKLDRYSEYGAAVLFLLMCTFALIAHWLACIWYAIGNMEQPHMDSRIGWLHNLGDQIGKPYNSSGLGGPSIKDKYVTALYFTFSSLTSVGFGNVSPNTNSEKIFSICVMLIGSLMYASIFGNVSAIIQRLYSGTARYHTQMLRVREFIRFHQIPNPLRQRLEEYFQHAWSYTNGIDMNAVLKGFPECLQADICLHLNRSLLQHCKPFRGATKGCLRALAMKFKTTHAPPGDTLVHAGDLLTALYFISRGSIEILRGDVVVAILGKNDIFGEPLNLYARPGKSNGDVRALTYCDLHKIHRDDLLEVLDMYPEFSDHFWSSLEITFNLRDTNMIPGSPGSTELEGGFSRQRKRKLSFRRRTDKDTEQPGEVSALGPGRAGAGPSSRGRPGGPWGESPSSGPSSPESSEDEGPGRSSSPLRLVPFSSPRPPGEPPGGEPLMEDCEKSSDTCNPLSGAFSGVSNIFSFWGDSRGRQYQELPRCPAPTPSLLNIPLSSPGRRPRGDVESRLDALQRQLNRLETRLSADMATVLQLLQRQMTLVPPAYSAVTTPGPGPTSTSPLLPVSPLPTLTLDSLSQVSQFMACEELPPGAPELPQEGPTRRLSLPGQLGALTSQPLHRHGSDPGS
Description: Displacement of radiolabeled MK-499 from human ERG expressed in HEK293 cells

[4] = Solubility of the compound in PBS buffer; type: physicochemical
[5] = Plasma clearance in Sprague-Dawley rat at 1 mg/kg, iv; type: ADME, organism-based; set-up: dose 1 mg/kg, route intravenous
[6] = Half life in Sprague-Dawley rat at 1 mg/kg, iv; type: ADME, organism-based; set-up: dose 1 mg/kg, route intravenous; settings: in vivo
[7] = Plasma clearance in Sprague-Dawley rat at 2 mg/kg, po; type: ADME, organism-based; set-up: dose 2 mg/kg, route oral
Rattus norvegicus [8] = assay: Volume of distribution at steady state in Sprague-Dawley rat at 2 mg/kg, po; type: ADME, organism-based; set-up: dose 2 mg/kg, route oral; settings: in vivo
Rattus norvegicus [9] = assay: Dose normalized AUC in Sprague-Dawley rat at 2 mg/kg, po; type: ADME, organism-based; set-up: dose 2 mg/kg, route oral; settings: in vivo
[10] = Oral bioavailability in Sprague-Dawley rat at 2 mg/kg; type: ADME, organism-based; settings: in vivo
[11] = Volume of distribution at steady state in Sprague-Dawley rat at 1 mg/kg, iv; type: ADME, organism-based; set-up: dose 1 mg/kg, route intravenous; settings: in vivo

| Structure (SMILES) | IC50 (Gamma-secretase [1]) [nM] | IC50 (Gamma-secretase [2]) [µM] | IC50 [3] [nM] | also measured |
| --- | --- | --- | --- | --- |
| COc1cc(/C=C/c2nc(N)c3c4c(sc3n2)CCCCC4)ccc1-n1cnc(C)c1 | 200 | 2.03 | – | – |
| COc1cc(/C=C/c2nc(N)c3c(n2)oc2ccccc23)ccc1-n1cnc(C)c1 | 320 | 2.96 | 510 | – |
| COc1cc(/C=C/c2nc3sc4c(c3c(=O)[nH]2)CCC4)ccc1-n1cnc(C)c1 | 370 | 3.89 | 4730 | – |
| COc1cc(/C=C/c2nc(NCc3ccccc3)c3c4c(sc3n2)CCC4)ccc1-n1cnc(C)c1 | 1860 | > 10 | 1120 | – |
| COc1cc(/C=C/c2nc(N)nc(Nc3ccccc3)n2)ccc1-n1cnc(C)c1 | 1070 | 3.33 | – | – |
| COc1cc(/C=C/c2nc(N)c3ccccc3n2)ccc1-n1cnc(C)c1 | 1690 | 6.1 | 140 | solubility [4]: 6 µM (≈ 2.14 µg/mL) |
| COc1cc(/C=C/c2nc3ccccc3c(=O)n2C)ccc1-n1cnc(C)c1 | > 10000 | > 10 | – | solubility [4]: 33 µM (≈ 12.3 µg/mL) |
| CCOC(=O)c1sc2nc(/C=C/c3ccc(-n4cnc(C)c4)c(OC)c3)nc(N)c2c1C | 540 | 3.72 | 980 | – |
| COc1cc(/C=C/c2nc3ccccc3c(=O)n2-c2ccccc2)ccc1-n1cnc(C)c1 | 2080 | > 10 | 990 | – |

Second part, led by results:

| IC50 (Gamma-secretase [1]) [nM] | IC50 (Gamma-secretase [2]) [µM] | Structure (SMILES) | IC50 [3] [nM] | also measured |
| --- | --- | --- | --- | --- |
| 4870 | > 10 | COc1cc(/C=C/c2nc3cccc(F)c3c(=O)[nH]2)ccc1-n1cnc(C)c1 | – | – |
| 4280 | > 10 | COc1cc(/C=C/c2nc3ccc(F)cc3c(=O)[nH]2)ccc1-n1cnc(C)c1 | – | – |
| 1650 | > 10 | COc1cc(/C=C/c2nc3sc(C)c(C)c3c(=O)[nH]2)ccc1-n1cnc(C)c1 | > 10000 | – |
| 3890 | 4.95 | COc1cc(/C=C/c2nc3ccccc3c(=O)[nH]2)ccc1-n1cnc(C)c1 | – | – |
| 2180 | 6.74 | COc1cc(/C=C/c2nc3cc(S(C)(=O)=O)ccc3c(=O)[nH]2)ccc1-n1cnc(C)c1 | – | – |
| 840 | > 10 | COc1cc(/C=C/c2nc3ccccc3[nH]2)ccc1-n1cnc(C)c1 | 680 | – |
| 660 | > 10 | COc1cc(/C=C/c2nc3cc(Cl)ccc3c(=O)[nH]2)ccc1-n1cnc(C)c1 | – | clearance [5]: 6.8 mL/min/kg; half-life [6]: 348 min; CL/F [7]: 8 mL/min/kg; Vdss (Rattus norvegicus [8]): 8 L/kg; AUC (Rattus norvegicus [9]): 7 µM·h; bioavailability [10]: 59%; Vd [11]: 1.8 L/kg |
| 340 | 4.82 | COc1cc(/C=C/c2nc3cc(Br)ccc3c(=O)[nH]2)ccc1-n1cnc(C)c1 | – | – |
| 370 | 3.74 | COc1cc(/C=C/c2nc3cc(C(F)(F)F)ccc3c(=O)[nH]2)ccc1-n1cnc(C)c1 | – | – |
| 1290 | > 10 | COc1cc(/C=C/c2nc3scc(C)c3c(=O)[nH]2)ccc1-n1cnc(C)c1 | > 10000 | – |
